The supplement of paper PMC10307832

Key:
Experiment in all cases: relative viability (nuclei count vs DMSO), 5 days (fraction); higher = more cells survive
[1] = compound: O[C@@H](COc1cccc2ncccc12)CN1CCN([C@@H]2c3ccccc3[C@@H]3[C@H](c4ccccc42)C3(F)F)CC1 [Zosuquidar] + O=C(CCCCCCC(=O)Nc1ccccc1)NO [Vorinostat] (partner 1 µM)
Summary of the method: (§1)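 For relative viability, nuclei counts in treated wells were divided by those in vehicle wells. Lung cancer cell lines had been pin-tool dosed in 1536-well plates the day after seeding and cultured for 5 days, then fixed and stained in one step (final 0.05% Triton X-100, 1% formaldehyde, 1 ug/ml Hoechst) and imaged at 4×. Doses were one drug alone or a fixed anchor-drug dose plus five library-drug doses (not always all listed) in √10 steps, and values are duplicate-plate medians.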

[2] = compound: C1=CC(=CC=C1NC(=S)NNC2=C(C=C(C=C2[N+](=O)[O-])C(F)(F)F)[N+](=O)[O-])F [Kobe2602] + CCNC(=O)c1noc(-c2cc(C(C)C)c(O)cc2O)c1-c1ccc(CN2CCOCC2)cc1 [Luminespib] (partner 0.01 µM)
Summary of the method: as §1

[3] = compound: O[C@@H](COc1cccc2ncccc12)CN1CCN([C@@H]2c3ccccc3[C@@H]3[C@H](c4ccccc42)C3(F)F)CC1 [Zosuquidar] + CS(=O)(=O)N1CCN(Cc2cc3nc(-c4cccc5[nH]ncc45)nc(N4CCOCC4)c3s2)CC1 [Pictilisib] (partner 1 µM)
Summary of the method: as §1

[4] = compound: COc1cc2nccc(Oc3ccc(NC(=O)C4(C(=O)Nc5ccc(F)cc5)CC4)cc3)c2cc1OC [Cabozantinib] + O=C(CCCCCCC(=O)Nc1ccccc1)NO [Vorinostat] (partner 1 µM)
Summary of the method: as §1

| Cell Line | relative viability ([1]; first compound 0.01 µM) | relative viability ([1]; first compound 0.03162 µM) | relative viability ([1]; first compound 0.1 µM) | relative viability ([1]; first compound 0.3162 µM) | relative viability ([1]; first compound 1 µM) | relative viability ([2]; first compound 0.2 µM) | relative viability ([2]; first compound 0.6325 µM) | relative viability ([2]; first compound 2 µM) | relative viability ([2]; first compound 6.325 µM) | relative viability ([2]; first compound 20 µM) | relative viability ([3]; first compound 0.01 µM) | relative viability ([3]; first compound 0.03162 µM) | relative viability ([3]; first compound 0.1 µM) | relative viability ([3]; first compound 0.3162 µM) | relative viability ([3]; first compound 1 µM) | relative viability ([4]; first compound 0.02 µM) | relative viability ([4]; first compound 0.06325 µM) | relative viability ([4]; first compound 0.2 µM) | relative viability ([4]; first compound 0.6325 µM) | relative viability ([4]; first compound 2 µM) |
| --- | --- | --- | --- | --- | --- | --- | --- | --- | --- | --- | --- | --- | --- | --- | --- | --- | --- | --- | --- | --- |
| ChaGo-K-1 | 0.741 | 0.657 | 0.796 | 0.781 | 0.733 | 0.684 | 0.53 | 0.743 | 0.617 | 0.507 | 0.858 | 0.563 | 1.27 | 0.882 | 0.637 | 0.741 | 0.81 | 0.704 | 0.72 | 0.772 |
| EKVX | 0.819 | 0.736 | 0.595 | 0.691 | 0.656 | 0.9 | 0.948 | 0.832 | 0.871 | 0.858 | 0.427 | 0.446 | 0.346 | 0.455 | 0.444 | 0.725 | 0.868 |  | 0.708 | 0.84 |
| EMC-BAC-2 | 0.457 | 0.438 | 0.489 | 0.528 | 0.258 | 1.16 | 1.16 | 1.13 | 1.31 | 1.14 | 0.511 | 0.524 | 0.47 | 0.635 | 0.508 | 0.279 | 0.678 | 0.608 | 0.456 | 0.422 |
| EPLC-272H | 0.464 | 0.606 | 0.399 | 0.503 | 0.74 | 0.259 | 0.83 | 0.327 | 0.363 | 0.27 | 0.308 | 0.344 | 0.311 | 0.272 | 0.35 | 0.299 | 0.44 | 0.402 | 0.534 | 0.524 |
| H3255 | 0.787 | 0.837 | 0.613 | 0.824 | 0.756 | 0.769 | 0.981 | 0.902 | 0.937 | 0.878 | 0.49 | 0.565 | 0.412 | 0.526 | 0.42 | 0.887 | 0.791 |  | 0.769 | 0.926 |
| HARA | 0.657 | 0.526 | 0.606 | 0.556 | 0.459 | 0.752 | 1.05 | 0.688 | 0.776 | 0.69 | 0.589 | 0.404 | 0.312 | 0.5 | 0.49 | 0.576 | 0.52 |  | 0.529 | 0.489 |
| HCC-15 | 0.844 | 0.745 | 0.716 | 0.894 | 0.877 | 0.411 | 0.272 | 0.301 | 0.255 | 0.384 | 0.686 | 0.778 | 0.753 | 0.801 | 0.854 | 0.913 | 0.893 | 0.861 | 0.799 | 0.824 |
| HCC-44 | 1.1 | 1.18 | 1.18 | 1.12 | 1.05 | 1.05 | 0.97 | 0.984 | 1.13 | 0.921 | 0.615 | 0.57 | 0.603 | 0.742 | 0.815 | 1.1 | 1.29 | 1.08 | 1.14 | 1.08 |
| HCC-827 | 0.761 | 0.786 | 0.714 | 0.849 | 0.999 | 0.856 | 0.793 | 0.619 | 0.369 | 0.831 | 1.08 | 1.14 | 0.774 | 1.05 | 0.994 | 0.837 | 1.05 |  | 0.785 | 0.526 |
| HOP-62 | 0.528 | 0.624 | 0.585 | 0.836 | 0.593 | 0.933 | 0.957 | 0.866 | 0.88 | 0.87 | 0.684 | 0.86 | 0.579 | 0.81 | 0.831 | 0.661 | 0.764 | 0.669 | 0.603 | 0.555 |
| LC-2-ad | 0.681 | 0.774 | 0.722 | 0.683 | 0.674 | 1.01 | 1.15 | 0.908 | 1.12 | 1.06 | 0.386 | 0.566 | 0.41 | 0.493 | 0.524 | 0.724 | 0.806 | 0.767 | 0.682 | 0.522 |
| LCLC-97TM1 | 0.663 | 0.929 |  | 0.73 | 0.777 | 0.749 | 0.718 | 0.739 | 0.741 | 0.819 | 0.203 | 0.219 |  | 0.192 | 0.226 | 0.24 | 0.823 | 0.739 | 0.781 | 0.751 |
| LCLC-103H | 0.754 | 0.771 | 0.598 | 0.848 | 0.803 | 0.908 | 1.03 | 0.935 | 0.913 | 0.765 | 0.541 | 0.569 | 0.542 | 0.607 | 0.737 | 0.762 | 0.906 | 0.892 | 0.791 | 0.736 |
| LK-2 | 0.232 | 0.311 | 0.283 | 0.298 | 0.335 | 0.189 | 0.204 | 0.182 | 0.154 | 0.195 | 0.625 | 0.529 | 0.576 | 0.59 | 0.53 | 0.226 | 0.178 | 0.385 | 0.309 | 0.348 |
| LOU-NH91 | 0.854 | 0.917 | 0.772 | 0.941 | 0.919 | 0.387 | 0.338 | 0.326 | 0.367 | 0.331 | 0.536 | 0.572 | 0.482 | 0.543 | 0.516 | 0.851 | 0.973 | 0.822 | 0.853 | 0.914 |
| LU99A | 0.476 | 0.423 | 0.463 | 0.618 | 0.544 | 0.281 | 0.29 | 0.227 | 0.2 | 0.343 | 0.252 | 0.275 | 0.354 | 0.327 | 0.4 | 0.413 | 0.524 | 0.574 | 0.456 | 0.647 |
